The IC50 is the midpoint of a concentration-inhibition curve. Low readings indicate inhibition by little substance, high ones a need for much substance.

For this assay, the target named is TRPM7 (Mus musculus, UniProt Q923J1). The format is cell-based.
TRPM7, sequence (Q923J1 whole entry): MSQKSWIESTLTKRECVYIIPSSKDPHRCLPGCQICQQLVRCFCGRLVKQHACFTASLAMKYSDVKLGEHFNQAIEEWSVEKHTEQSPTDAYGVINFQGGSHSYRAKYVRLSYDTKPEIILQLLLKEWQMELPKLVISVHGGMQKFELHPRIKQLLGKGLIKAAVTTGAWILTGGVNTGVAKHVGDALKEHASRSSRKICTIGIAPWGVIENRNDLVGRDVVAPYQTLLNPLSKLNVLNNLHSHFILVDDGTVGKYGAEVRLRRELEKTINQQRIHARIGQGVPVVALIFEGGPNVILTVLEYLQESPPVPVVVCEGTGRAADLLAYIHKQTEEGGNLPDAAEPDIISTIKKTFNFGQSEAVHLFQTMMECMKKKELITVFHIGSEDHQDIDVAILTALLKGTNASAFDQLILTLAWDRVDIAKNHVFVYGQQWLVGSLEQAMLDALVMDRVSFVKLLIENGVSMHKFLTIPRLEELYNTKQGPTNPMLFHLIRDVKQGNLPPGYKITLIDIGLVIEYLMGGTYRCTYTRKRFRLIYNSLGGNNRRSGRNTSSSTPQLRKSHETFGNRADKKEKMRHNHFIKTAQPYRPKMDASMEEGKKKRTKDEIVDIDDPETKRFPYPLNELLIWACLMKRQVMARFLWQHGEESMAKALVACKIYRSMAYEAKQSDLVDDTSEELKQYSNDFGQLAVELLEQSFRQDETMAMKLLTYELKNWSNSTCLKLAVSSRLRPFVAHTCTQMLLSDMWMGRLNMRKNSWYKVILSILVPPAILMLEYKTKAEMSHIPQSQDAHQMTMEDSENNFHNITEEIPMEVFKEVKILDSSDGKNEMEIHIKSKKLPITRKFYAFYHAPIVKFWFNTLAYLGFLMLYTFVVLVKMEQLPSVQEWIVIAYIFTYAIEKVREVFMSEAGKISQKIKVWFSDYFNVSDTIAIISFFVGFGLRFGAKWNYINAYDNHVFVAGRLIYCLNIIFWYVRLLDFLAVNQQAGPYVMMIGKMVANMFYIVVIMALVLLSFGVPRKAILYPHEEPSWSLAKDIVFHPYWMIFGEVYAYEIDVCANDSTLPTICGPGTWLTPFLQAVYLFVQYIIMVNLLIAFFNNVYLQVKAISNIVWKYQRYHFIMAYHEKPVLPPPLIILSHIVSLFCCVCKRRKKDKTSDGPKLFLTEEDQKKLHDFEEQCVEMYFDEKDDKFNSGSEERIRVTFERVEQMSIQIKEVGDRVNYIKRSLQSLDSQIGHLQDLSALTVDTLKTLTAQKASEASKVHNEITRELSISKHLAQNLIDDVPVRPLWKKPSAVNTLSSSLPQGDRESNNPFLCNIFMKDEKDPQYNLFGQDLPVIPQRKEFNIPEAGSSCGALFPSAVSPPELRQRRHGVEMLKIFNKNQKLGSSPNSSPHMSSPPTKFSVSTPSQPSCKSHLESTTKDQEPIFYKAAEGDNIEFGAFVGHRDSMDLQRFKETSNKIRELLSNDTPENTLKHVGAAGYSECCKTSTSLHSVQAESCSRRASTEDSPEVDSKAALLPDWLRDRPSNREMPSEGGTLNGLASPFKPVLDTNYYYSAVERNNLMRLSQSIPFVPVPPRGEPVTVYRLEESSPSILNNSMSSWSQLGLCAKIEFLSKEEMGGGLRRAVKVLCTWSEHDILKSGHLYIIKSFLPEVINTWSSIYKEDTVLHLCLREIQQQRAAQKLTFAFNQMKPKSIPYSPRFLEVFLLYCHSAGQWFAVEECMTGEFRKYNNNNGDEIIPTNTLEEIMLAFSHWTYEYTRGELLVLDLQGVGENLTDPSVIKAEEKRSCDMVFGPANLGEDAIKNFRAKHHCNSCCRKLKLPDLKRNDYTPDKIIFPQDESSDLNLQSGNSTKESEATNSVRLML

As to `NCCOB(c1ccccc1)c1ccccc1` [2-APB], half-maximal inhibition (IC50) was put at 30 µM.

The values above are taken from article PMC4725312 (Journal of biomolecular screening, 2010).
